Source: patent publication US7476650B2, “Enzyme inhibition” (Yale University, priority 1999, dated 2009)
Read-outs that look alike come from different tables or passages of the source. One block for each molecule: values may come before it. Where a SMILES comes first, the peptide text is derived from it. The star is where a group is joined. X1 = CC(C)C[C@H](N*)C(=O)[C@@]1(C)CO1

What was measured:
Type in all cases: biochemical
[1] = target: T1, chymotrypsin-like activity of purified bovine erythrocyte 20S proteasome (Bos taurus, UniProt Q32KL2); assay: Enzyme kinetic assay, chymotrypsin-like activity (Suc-LLVY-AMC); settings: for kinact/KI: pH 8, inhibitor concentration range in parentheses; for kobs/[I] Chymotrypsin-like: Table 3; for kobs/[I] for chymotryptic-like activity using Suc-LLVY-AMC: Examples 9 and 10, in M-1s-1
T1 construct: from tissue; host or cells: bovine erythrocytes (red blood cells)
Text: (§1) We investigated the potency of inhibitors of various length. Mono-, di-,tri- and tetraleucine α′,β′-epoxides were ranked by determination of the kobs/[I] values for inhibition of the chymotrypsin-like, trypsin-like, and PGPH activities of purified bovine erythrocyte 20S proteasome.
(§2) Purified bovine erythrocyte proteasome was enzymatically assayed using a variety of different substrates and inhibitors. In order to evaluate the rates of proteolytic inactivation by inhibitors, kassociation (kobs/[I]) values were determined using fluorogenic peptide substrates over a range of inhibitor concentrations.

[2] = target: T2, trypsin-like activity of purified bovine erythrocyte 20S proteasome (Bos taurus, UniProt Q2TBP0); assay: Enzyme kinetic assay, trypsin-like activity (Boc-LRR-AMC); settings: for kobs/[I] for tryptic-like activity using Boc-LRR-AMC: Examples 9 and 10; for kinact/KI: pH 8, inhibitor concentration range in parentheses; for kobs/[I] Trypsin-like: Table 3
T2 construct: from tissue; host or cells: bovine erythrocytes (red blood cells)
Text: as §1, §2

[3] = target: T3, PGPH activity of purified bovine erythrocyte 20S proteasome (Bos taurus, UniProt Q3MHN0); assay: Enzyme kinetic assay, PGPH activity (Z-LLE-AMC); settings: for kinact/KI: pH 8, inhibitor concentration range in parentheses; for kobs/[I] PGPH: Table 3; for selectivity for the PGPH activity: in words, data not shown for Glu compounds; for kobs/[I] for PGPH activity using Z-LLE-AMC: Examples 9 and 10
T3 construct: from tissue; host or cells: bovine erythrocytes (red blood cells)
Procedure: We investigated the potency of inhibitors of various length. Mono-, di-,tri- and tetraleucine α′,β′-epoxides were ranked by determination of the kobs/[I] values for inhibition of the chymotrypsin-like, trypsin-like, and PGPH activities of purified bovine erythrocyte 20S proteasome. Enzyme kinetic assays were performed as described in Example 2.
as §2

[4] = Table 1, read-out: kobs/[I] Chymotrypsin-like activity
[5] = Table 1, read-out: kobs/[I] PGPH activity
[6] = Table 4, read-out: kassoc = kobs/[I] Chymotrypsin-like activity
[7] = Table 4, read-out: kassoc = kobs/[I] Trypsin-like activity
[8] = Table 4, read-out: kassoc = kobs/[I] PGPH activity

kinact/KI [1, 4]: 14000 M⁻¹ s⁻¹ | kobs/[I] for tryptic-like activity using Boc-LRR-AMC [2]: not measurable | kinact/KI [3, 5]: 9.2 M⁻¹ s⁻¹
Molecule: CC(=O)N[C@@H](CC(C)C)C(=O)N[C@@H](CC(C)C)C(=O)N[C@@H](CC(C)C)C(=O)N[C@@H](CC(C)C)C(=O)[C@@]1(C)CO1

kinact/KI [1, 4]: 3.1 M⁻¹ s⁻¹
Molecule: CC(=O)N[C@@H](CC(C)C)C(=O)N[C@@H](CC(C)C)C(=O)[C@@]1(C)CO1

kobs/[I] Chymotrypsin-like [1]: 170 ± 60 M⁻¹ s⁻¹ | kobs/[I] Trypsin-like [2]: 1.3 ± 0.3 M⁻¹ s⁻¹ | kobs/[I] PGPH [3]: 170 ± 30 M⁻¹ s⁻¹
Molecule: CC(=O)NCC(=O)NCC(=O)N1CCC[C@H]1C(=O)N[C@@H](Cc1ccccc1)C(=O)N[C@@H](CC(C)C)C(=O)[C@@]1(C)CO1 [Ac-GGPFL-Ex] (Ac-GGPF-X1)

kobs/[I] Chymotrypsin-like [1]: 31.2 ± 0.6 M⁻¹ s⁻¹ | kobs/[I] PGPH [3]: 45.3 ± 2.2 M⁻¹ s⁻¹
Molecule: CC(=O)N1CCC(C(=O)N2CCC[C@H]2C(=O)N[C@@H](Cc2ccccc2)C(=O)N[C@@H](CC(C)C)C(=O)[C@@]2(C)CO2)CC1 [N-acetyl-piperidinecarbonyl-PFL-Ex]

kobs/[I] for chymotryptic-like activity using Suc-LLVY-AMC [1]: 29,000 | kobs/[I] for tryptic-like activity using Boc-LRR-AMC [2]: not measurable | kobs/[I] for PGPH activity using Z-LLE-AMC [3]: not measurable
Molecule: CC(=O)N[C@@H](Cc1cccc2ccccc12)C(=O)N[C@@H](CC(C)C)C(=O)N[C@@H](CC(C)C)C(=O)N[C@@H](CC(C)C)C(=O)[C@@]1(C)CO1 [P4 I -naphthyl]

kobs/[I] for chymotryptic-like activity using Suc-LLVY-AMC [1]: 23,000 | kobs/[I] for tryptic-like activity using Boc-LRR-AMC [2]: not measurable | kobs/[I] for PGPH activity using Z-LLE-AMC [3]: not measurable
Molecule: CC(=O)N[C@@H](Cc1ccc(C(=O)c2ccccc2)cc1)C(=O)N[C@@H](CC(C)C)C(=O)N[C@@H](CC(C)C)C(=O)N[C@@H](CC(C)C)C(=O)[C@@]1(C)CO1 [P4 p-benzoylphenyl]

kobs/[I] for chymotryptic-like activity using Suc-LLVY-AMC [1]: 37,000 | kobs/[I] for tryptic-like activity using Boc-LRR-AMC [2]: 5.5 M⁻¹ s⁻¹ | kobs/[I] for PGPH activity using Z-LLE-AMC [3]: 78
Molecule: CC(=O)N[C@@H](Cc1ccccc1)C(=O)N[C@@H](CC(C)C)C(=O)N[C@@H](CC(C)C)C(=O)N[C@@H](CC(C)C)C(=O)[C@@]1(C)CO1 [P4 phenyl]

selectivity for the PGPH activity [3]: poor PGPH-selective inhibitors
Molecule: isooctanoyl-Ser-Glu-α′,β′-epoxyketone

kobs/[I] Chymotrypsin-like [1]: 58 ± 14 M⁻¹ s⁻¹ | kobs/[I] Trypsin-like [2]: 17 ± 3 M⁻¹ s⁻¹ | kobs/[I] PGPH [3]: 175 ± 2 M⁻¹ s⁻¹
Molecule: isooctanoyl-Ser-Leu-α′,β′-epoxyketone [Eponemycin, reference compound]
selectivity for the PGPH activity [3]: modest selectivity toward the PGPH activity

selectivity for the PGPH activity [3]: poor PGPH-selective inhibitors
Molecule: isooctanoyl-Thr-Glu-α′,β′-epoxyketone

Further lines, the molecule ahead of its results:

Molecule: CC(=O)N[C@@H](CC(C)C)C(=O)N[C@@H](CC(C)C)C(=O)N[C@@H](CC(C)C)C(=O)[C@@]1(C)CO1
kinact/KI [1, 4]: 780 M⁻¹ s⁻¹ | kinact/KI ([2]; Table 1, read-out: kobs/[I] trypsin-like activity): 5.1 M⁻¹ s⁻¹ | kinact/KI [3, 5]: 120 M⁻¹ s⁻¹

Molecule: CC(=O)N[C@@H](C)C(=O)N[C@H](C(=O)N[C@@H](CC(C)C)C(=O)[C@@]1(C)CO1)C(C)C [Ac-AVL-Ex]
kobs/[I] Chymotrypsin-like [1]: 10.8 ± 0.2 M⁻¹ s⁻¹ | kobs/[I] Trypsin-like [2]: 1.8 ± 0.1 M⁻¹ s⁻¹ | kobs/[I] PGPH [3]: 12.7 ± 1.3 M⁻¹ s⁻¹

Molecule: CC(=O)N[C@@H](C)C(=O)N[C@H](C(=O)N[C@@H](CCC(=O)O)C(=O)[C@@]1(C)CO1)C(C)C [Ac-Ala-Val-Glu-α′,β′-epoxyketone]
selectivity for the PGPH activity [3]: did not display any significant selectivity

Molecule: CC(=O)NCC(=O)N1CCC[C@H]1C(=O)N[C@@H](Cc1ccccc1)C(=O)N[C@@H](CCC(=O)O)C(=O)[C@@]1(C)CO1 [Ac-Gly-Pro-Phe-Glu-α′,β′-epoxyketone]
selectivity for the PGPH activity [3]: did not display any significant selectivity

Molecule: CC[C@H](C)[C@H](NC(C)=O)C(=O)N[C@H](C(=O)N[C@@H](CC(C)C)C(=O)[C@@]1(C)CO1)C(C)C [Ac-IVL-Ex]
kobs/[I] Chymotrypsin-like [1]: 5 ± 0.1 M⁻¹ s⁻¹ | kobs/[I] Trypsin-like [2]: 6.7 ± 0.1 M⁻¹ s⁻¹ | kobs/[I] PGPH [3]: 14.6 ± 4.2 M⁻¹ s⁻¹

Molecule: CC[C@H](C)[C@H](NC(C)=O)C(=O)N[C@H](C(=O)N[C@H](C(=O)N[C@@H](CCC(=O)O)C(=O)[C@@]1(C)CO1)[C@@H](C)O)[C@@H](C)CC [Ac-Ile-Ile-Thr-Glu-α′,β′-epoxyketone]
selectivity for the PGPH activity [3]: did not display any significant selectivity

Molecule: CC[C@H](C)[C@H](NC(C)=O)C(=O)N[C@H](C(=O)N[C@@H](CCC(=O)O)C(=O)[C@@]1(C)CO1)C(C)C [Ac-Ile-Val-Glu-α′,β′-epoxyketone]
selectivity for the PGPH activity [3]: did not display any significant selectivity

Molecule: CC(=O)N1CCC[C@H]1C(=O)N[C@@H](Cc1ccccc1)C(=O)N[C@@H](CC(C)C)C(=O)[C@@]1(C)CO1 [Ac-PFL-Ex]
kobs/[I] Chymotrypsin-like [1]: 42 ± 2 M⁻¹ s⁻¹ | kobs/[I] PGPH [3]: 32 ± 6 M⁻¹ s⁻¹

Molecule: CC(=O)N1CCC[C@H]1C(=O)N1CCC[C@H]1C(=O)N[C@@H](Cc1ccccc1)C(=O)N[C@@H](CC(C)C)C(=O)[C@@]1(C)CO1 [Ac-PPFL-Ex]
kobs/[I] Chymotrypsin-like [1]: 6.4 ± 3.3 M⁻¹ s⁻¹ | kobs/[I] PGPH [3]: 10.6 ± 0.3 M⁻¹ s⁻¹

Molecule: CC(=O)N1CCC[C@H]1C(=O)N[C@@H](Cc1ccccc1)C(=O)N[C@@H](CCC(=O)O)C(=O)[C@@]1(C)CO1 [Ac-Pro-Phe-Glu-α′,β′-epoxyketone]
selectivity for the PGPH activity [3]: did not display any significant selectivity

Molecule: CC(=O)N[C@@H](CC(C)C)C(=O)N[C@@H](CC(C)C)C(=O)N[C@@H](Cc1cccc2ccccc12)C(=O)N[C@@H](CC(C)C)C(=O)[C@@]1(C)CO1 [P2 1-naphthyl]
kobs/[I] for chymotryptic-like activity using Suc-LLVY-AMC [1]: 29,000 | kobs/[I] for tryptic-like activity using Boc-LRR-AMC [2]: not measurable | kobs/[I] for PGPH activity using Z-LLE-AMC [3]: not measurable

Molecule: CC(=O)N[C@@H](CC(C)C)C(=O)N[C@@H](Cc1cccc2ccccc12)C(=O)N[C@@H](CC(C)C)C(=O)N[C@@H](CC(C)C)C(=O)[C@@]1(C)CO1 [P3 1-naphthyl]
kobs/[I] for chymotryptic-like activity using Suc-LLVY-AMC [1]: 31,000 | kobs/[I] for tryptic-like activity using Boc-LRR-AMC [2]: not measurable | kobs/[I] for PGPH activity using Z-LLE-AMC [3]: not measurable

Molecule: CC(=O)N[C@@H](CCc1ccccc1)C(=O)N[C@@H](CC(C)C)C(=O)N[C@@H](CC(C)C)C(=O)N[C@@H](CC(C)C)C(=O)[C@@]1(C)CO1 [P4 methylphenyl]
kobs/[I] for chymotryptic-like activity using Suc-LLVY-AMC [1]: 63,000 | kobs/[I] for tryptic-like activity using Boc-LRR-AMC [2]: 5.4 M⁻¹ s⁻¹ | kobs/[I] for PGPH activity using Z-LLE-AMC [3]: 50

Molecule: CC(C)C[C@H](NC(=O)[C@@H](N)CCc1ccccc1)C(=O)N[C@@H](Cc1ccccc1)C(=O)N[C@@H](CC(C)C)C(=O)[C@@]1(C)CO1 [compound 18]
kobs/[I] for chymotryptic-like activity using Suc-LLVY-AMC [1]: 5200 | kinact/KI [1, 6]: 5200 M⁻¹ s⁻¹ | kobs/[I] for tryptic-like activity using Boc-LRR-AMC [2]: 580 M⁻¹ s⁻¹ | kinact/KI [2, 7]: 580 M⁻¹ s⁻¹ | kinact/KI [3, 8]: 11 M⁻¹ s⁻¹

Molecule: CC(C)[C@H](O)[C@@]12NC(=O)[C@H](C)[C@@H]1OC2=O [drawing 17, reference compound]
kinact/KI [1, 6]: 7400 M⁻¹ s⁻¹ | kinact/KI [2, 7]: 68 M⁻¹ s⁻¹ | kinact/KI [3, 8]: 47 M⁻¹ s⁻¹

Molecule: CC(C)C[C@H](NC(=O)[C@H](Cc1ccccc1)NC(=O)c1cnccn1)B(O)O [reference compound]
kinact/KI [1, 6]: 53000 M⁻¹ s⁻¹ | kinact/KI [3, 8]: 3200 M⁻¹ s⁻¹

Molecule: CC(C)C[C@@H](/C=C/S(C)(=O)=O)NC(=O)[C@H](CC(C)C)NC(=O)[C@H](CC(C)C)NC(=O)Cc1cc(N)c(O)c(I)c1 [reference compound]
kinact/KI [1, 6]: 5000 M⁻¹ s⁻¹ | kinact/KI [2, 7]: 3.4 M⁻¹ s⁻¹ | kinact/KI [3, 8]: 4 M⁻¹ s⁻¹
